biological target: recombinant DYRK1A kinase (Homo sapiens (Human), UniProt Q13627); experiment: DYRK1A kinase assay (Ser/Thr 18 peptide Z-lyte FRET); format: biochemical; conditions: DYRK1A kinase activity, Z-lyte Ser/Thr 18 peptide, 15 μM ATP; method text calls the value IC50; read-out: EC50 (the source's name)
Procedure, shortened: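 Kinase 0.25 μg/mL + ATP 15 μM + Ser/Thr 18 peptide 4 μM, 1 h RT with cpd (10 μM top, 1:3, 11 pts, n=2). Dev. reagent A 1 h RT. Ex 400, Em 455/520 ratio → % phos. → IC50, nonlinear fit.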

SMILES | IC50 [nM]
COCC(=O)N[C@]1(C)C[C@@H](Nc2nc(OC)c3c(-c4ccc5nnn(C)c5c4)ccn3n2)C1 [Compound 208, 2-Methoxy-N-(trans-3-((4-methoxy-5-(1-methyl-1H-benzo[d][1,2,3]triazol-6-yl)pyrrolo[2,1-f][1,2,4]triazin-2-yl)amino)-1-methylcyclobutyl)acetamide] | 0.5
COc1nc(NC2CC3(CCN(C(C)=O)CC3)C2)nn2ccc(-c3ccn4nccc4c3)c12 [Compound 39, 1-(2-((4-Methoxy-5-(pyrazolo[1,5-a]pyridin-5-yl)pyrrolo[2,1-f][1,2,4]triazin-2-yl)amino)-7-azaspiro[3.5]nonan-7-yl)ethan-1-one] | 2.9
COc1nc(N[C@H]2C[C@](C)(C(=O)N(C)C)C2)nn2ccc(-c3ccc4ncccc4c3)c12 [Compound 290, trans-3-((4-Methoxy-5-(quinolin-6-yl)pyrrolo[2,1-f][1,2,4]triazin-2-yl)amino)-N,N,1-trimethylcyclobutane-1-carboxamide] | 1.8
COc1nc(NC2CCC(=O)N(C)C2)nn2ccc(-c3ccc4nc(C)n(CC(F)F)c4c3)c12 (stereo not drawn) [Compound 507, 5-((5-(1-(2,2-Difluoroethyl)-2-methyl-1H-benzo[d]imidazol-6-yl)-4-methoxypyrrolo[2,1-f][1,2,4]triazin-2-yl)amino)-1-methylpiperidin-2-one] | 3.1
COc1nc(N[C@@H]2CCN(C3COC3)C[C@@H]2F)nn2ccc(-c3cnc4nccn4c3)c12 [Compound 269, N-((3S,4R)-3-Fluoro-1-(oxetan-3-yl)piperidin-4-yl)-5-(imidazo[1,2-a]pyrimidin-6-yl)-4-methoxypyrrolo[2,1-f][1,2,4]triazin-2-amine] | 2.3
COc1nc(N[C@H]2C[C@@H]3CN(C(C)=O)C[C@@H]3C2)nn2ccc(-c3ccc4nccnc4c3)c12 [Compound 387, 1-((3aR,5s,6aS)-5-((4-Methoxy-5-(quinoxalin-6-yl)pyrrolo[2,1-f][1,2,4]triazin-2-yl)amino)hexahydrocyclopenta[c]pyrrol-2(1H)-yl)ethan-1-one] | 0.7
COc1nc(N[C@H]2C[C@@H](OCCO)C2)nn2ccc(-c3ccn4nccc4c3)c12 [Compound 6, 2-(cis-3-((4-Methoxy-5-(pyrazolo[1,5-a]pyridin-5-yl)pyrrolo[2,1-f][1,2,4]triazin-2-yl)amino)cyclobutoxy)ethan-1-ol] | 1.1
COc1nc(N[C@H]2CCN(C3CCC3)CC2(F)F)nn2ccc(-c3ccc4nc(C)n(CC(F)F)c4c3)c12 [Compound 141, (S)—N-(1-Cyclobutyl-3,3-difluoropiperidin-4-yl)-5-(1-(2,2-difluoroethyl)-2-methyl-1H-benzo[d]imidazol-6-yl)-4-methoxypyrrolo[2,1-f][1,2,4]triazin-2-amine] | 21.8
COc1nc(N[C@@H]2CCN(C3COC3)CC2(F)F)nn2ccc(-c3ccc4nccnc4c3)c12 [Compound 379, (R)—N-(3,3-Difluoro-1-(oxetan-3-yl)piperidin-4-yl)-4-methoxy-5-(quinoxalin-6-yl)pyrrolo[2,1-f][1,2,4]triazin-2-amine] | 3.3
COc1nc(N[C@H]2C[C@](C)(NC(=O)OC(C)(C)C)C2)nn2ccc(-c3ccn4nccc4c3)c12 [Compound 98, tert-Butyl (trans-3-((4-methoxy-5-(pyrazolo[1,5-a]pyridin-5-yl)pyrrolo[2,1-f][1,2,4]triazin-2-yl)amino)-1-methylcyclobutyl)carbamate] | 25.6
COc1nc(N[C@H]2CCN(C3COC3)C[C@H]2F)nn2ccc(-c3cc(F)c4nc(C)n(CC(F)F)c4c3)c12 [Compound 161, 5-(1-(2,2-Difluoroethyl)-4-fluoro-2-methyl-1H-benzo[d]imidazol-6-yl)-N-((3R,4S)-3-fluoro-1-(oxetan-3-yl)piperidin-4-yl)-4-methoxypyrrolo[2,1-f][1,2,4]triazin-2-amine] | 3
COc1nc(N[C@H]2C[C@@](C)(N)C2)nn2ccc(-c3ccc4nnn(C)c4c3)c12 [Compound 202, cis-N^1-(4-Methoxy-5-(1-methyl-1H-benzo[d][1,2,3]triazol-6-yl)pyrrolo[2,1-f][1,2,4]triazin-2-yl)-3-methylcyclobutane-1,3-diamine] | 10.9
CNC(=O)c1cnn2ccc(-c3ccn4nc(NC5CCC6(CC5)COC6)nc(OC)c34)cc12 [Compound 102, 5-(2-((2-Oxaspiro[3.5]nonan-7-yl)amino)-4-methoxypyrrolo[2,1-f][1,2,4]triazin-5-yl)-N-methylpyrazolo[1,5-a]pyridine-3-carboxamide] | 1.9
COc1nc(NC2CCN(CC(F)F)CC2)nn2ccc(-c3ccc4nccnc4c3)c12 [Compound 362, N-(1-(2,2-Difluoroethyl)piperidin-4-yl)-4-methoxy-5-(quinoxalin-6-yl)pyrrolo[2,1-f][1,2,4]triazin-2-amine] | 6

More lines, now with the values ahead:

IC50 [nM] | SMILES
36.7 | COc1nc(N[C@H]2CCN(CC(C)(C)C#N)C[C@H]2F)nn2ccc(-c3ccc4nnn(CC(F)F)c4c3)c12 [Compound 757, 3-((3R,4S)-4-((5-(1-(2,2-Difluoroethyl)-1H-benzo[d][1,2,3]triazol-6-yl)-4-methoxypyrrolo[2,1-f][1,2,4]triazin-2-yl)amino)-3-fluoropiperidin-1-yl)-2,2-dimethylpropanenitrile]
35.4 | C[C@]1(O)CC[C@H](Nc2nc(OC3COC3)c3c(-c4ccc5ncnn5c4)ccn3n2)CC1 [Compound 621, (1r,4r)-4-((5-([1,2,4]Triazolo[1,5-a]pyridin-6-yl)-4-(oxetan-3-yloxy)pyrrolo[2,1-f][1,2,4]triazin-2-yl)amino)-1-methylcyclohexan-1-ol]
7.7 | COc1nc(N[C@H]2CC[C@@](C)(O)CC2)nn2ccc(-c3ccc4nnn(CC(F)(F)F)c4c3)c12 [Compound 910, (1s,4s)-4-((4-Methoxy-5-(1-(2,2,2-trifluoroethyl)-1H-benzo[d][1,2,3]triazol-6-yl)pyrrolo[2,1-f][1,2,4]triazin-2-yl)amino)-1-methylcyclohexan-1-ol]
0.5 | COc1nc(N[C@H]2CCN(C(=O)C3(C#N)CC3)C[C@H]2F)nn2ccc(-c3ccc4nnn(CC(F)F)c4c3)c12 [Compound 776, 1-((3R,4S)-4-((5-(1-(2,2-Difluoroethyl)-1H-benzo[d][1,2,3]triazol-6-yl)-4-methoxypyrrolo[2,1-f][1,2,4]triazin-2-yl)amino)-3-fluoropiperidine-1-carbonyl)cyclopropane-1-carbonitrile]
5.7 | COc1nc(NC2CCC(C)(C#N)CC2)nn2ccc(-c3ccc4nnn(CC(F)F)c4c3)c12 (stereo not drawn) [Compound 721, 4-((5-(1-(2,2-Difluoroethyl)-1H-benzo[d][1,2,3]triazol-6-yl)-4-methoxypyrrolo[2,1-f][1,2,4]triazin-2-yl)amino)-1-methylcyclohexane-1-carbonitrile]
1.3 | COc1nc(N[C@@H]2CCN(C(C)=O)CC2(F)F)nn2ccc(-c3ccc4ncn(CC(F)F)c4c3)c12 [Compound 1140, (R)-1-(4-((5-(1-(2,2-Difluoroethyl)-1H-benzo[d]imidazol-6-yl)-4-methoxypyrrolo[2,1-f][1,2,4]triazin-2-yl)amino)-3,3-difluoropiperidin-1-yl)ethan-1-one]
3.4 | COc1nc(N[C@H]2CCN(C(C)=O)C[C@H]2F)nn2ccc(-c3ccc4nnn(C(C)C)c4c3)c12 [Compound 686, 1-((3R,4S)-3-Fluoro-4-((5-(1-isopropyl-1H-benzo[d][1,2,3]triazol-6-yl)-4-methoxypyrrolo[2,1-f][1,2,4]triazin-2-yl)amino)piperidin-1-yl)ethan-1-one]

Reference: patent publication US20240002391A1, “4-ALKOXYPYRROLO[2,1-F][1,2,4]TRIAZINES AND PREPARATION AND USES THEREOF” (BioSplice Therapeutics, Inc., priority 2022, published 2024)
